Reference: paper PMC5378956, “Inhibition of delta-secretase improves cognitive functions in mouse models of Alzheimer's disease” (Nature Communications, 2017)

Key:
[1] = Single-dose pharmacokinetics, IV and oral; details: for serum concentration: all three animals
Text: Two months old CD-1 male mice were orally
serum was collected at indicated time points with each group of 3 mice (mean ± s.d.).

5XFAD mice = details: 5 or 10 mg kg-1 oral; 1, 2, 4 h
tau P301S mice = tested on: tau P301S mice
Procedure: Only 2-month-old male mice were used in the present study. Sample size was determined by Power and Precision (Biostat). The animals were randomly allocated to experimental groups. Investigators were blinded to the group allocation during the animal experiments. […] The protocol was reviewed and approved by the Emory Institutional Animal Care and Use Committee. Rabbit anti-tau N368 (1:1,000), and anti-APP585N (1:500) antibody, which specifically recognize the δ-secretase-derived tau and APP fragments respectively, were described previously. […] TUNEL in situ cell death detection kit was from Roche (Indianapolis, IN). […] All chemicals not included above were purchased from Sigma-Aldrich (St. Louis, MO). Recombinant δ-secretase was obtained from Sino Biological (Beijing, China), recombinant cathepsin-S was obtained from Athens Research and Technology (Athens, GA), recombinant caspase-3 and caspase-8 were obtained from Millipore (Billerica, MA).
Synaptic density was determined by electron microscopy as described previously. After deep anaesthesia, mice were perfused transcardially with 2% glutaraldehyde and 3% paraformaldehyde in PBS. Hippocampal slices were post-fixed in cold 1% OsO4 for 1 h. Samples were prepared and examined using standard procedures. Ultrathin sections (90 nm) were stained with uranyl acetate and lead acetate and viewed at 100 kV in a JEOL 200CX electron microscope. Four mice were examined in each group. Synapses were identified by the presence of synaptic vesicles and post synaptic densities.
Electrophysiological analysis was carried out as described previously. […] The hippocampi were cut into 400-μm thick transverse slices with a vibratome. A 0.1 MΩ tungsten monopolar electrode was used to stimulate the Schaffer collaterals. The field excitatory post synaptic potentials (fEPSPs) were recorded in CA1 stratum radiatum by a glass microelectrode filled with a-CSF with resistance of 3–4 MΩ. The stimulation output (Master-8; AMPI, Jerusalem) was controlled by the trigger function of an EPC9 amplifier (HEKA Elektronik, Lambrecht, Germany). fEPSPs were recorded under current-clamp mode. Data were filtered at 3 kHz and digitized at sampling rates of 20 kHz using Pulse software (HEKA Elektronik). The stimulus intensity (0.1 ms duration, 10–30 μA) was set to evoke 40% of the maximum f-EPSP and the test pulse was applied at a rate of 0.033 Hz. LTP of fEPSPs was induced by three theta-burst-stimulation (TBS; 4 pulses at 100 Hz, repeated three times with a 200-ms interval). Paired-pulse facilitation (PPF) was examined by applying pairs of pulses, which were separated by 20–500 ms intervals. The magnitudes of LTP are expressed as the mean percentage of baseline fEPSP initial slope.
The mice were trained in a round, water-filled tub (52′ diameter) in an environment rich with extra maze cues. An invisible escape platform was located in a fixed spatial location 1 cm below the water surface independent of a subject's start position on a particular trial. In this manner, subjects needed to utilize extra maze cues to determine the platform's location. At the beginning of each trial, the mouse was placed in the water maze with their paws touching the wall from 1 of 4 different starting positions (N, S, E, W). […] On reaching the invisible escape platform, subjects were left on it for an additional 5 s to allow for survey of the spatial cues in the environment to guide future navigation to the platform. After each trial, subjects were dried and kept in a dry plastic holding cage filled with paper towels to allow the subjects to dry off. […] The percentage of time that was spent in the quadrant, which previously contained the escape platform during task acquisition, was measured over 60 s. All trials were analysed for latency, swim path length and swim speed by means of MazeScan (Clever Sys, Inc.).
The solution was changed each day.

[2] = male, CD-1, mouse, in vivo, iv, 2 mg kg-1
[3] = male, CD-1, mouse, in vivo, po, 10 mg kg-1
[4] = male, CD-1, mouse, serum, iv, 2 mg/kg
[5] = male, CD-1, mouse, serum, po, 10 mg/kg

With `Nc1ccc(N2CCOCC2)c2nonc12` [compound 11, 7-(morpholin-4-yl)-2,1,3-benzoxadiazol-4-amine] the serum concentration ([1]; IV 2 mg kg-1, 8.00 h) was “BLQ”, the serum concentration ([1]; IV 2 mg kg-1, 24.00 h) was “BLQ” and the concentration at 0.08 h [1, 2] was 230 ng/mL. It also gave a concentration at 0.5 h [1, 2] of 13.3 ng/mL, a concentration at 1 h [1, 2] of 3.5 ng/mL and a concentration at 2 h [1, 2] of 3.8 ng/mL. It also gave a concentration at 4 h [1, 2] of 3.1 ng/mL, a concentration at 0.5 h [1, 3] of 81.1 ng/mL and a concentration at 1 h [1, 3] of 27.2 ng/mL. For the same compound, the concentration at 2 h [1, 3] was 13.3 ng/mL, the concentration at 4 h [1, 3] was 11.6 ng/mL and the concentration at 8 h [1, 3] was 3.8 ng/mL. The AUC(0-inf) [1, 4] was 61.2 ng·h/mL, the AUC(0-t) [1, 4] was 61.1 ng·h/mL and the Cmax [1, 4] was 230 ng/mL. The MRT last [1, 4] was 18 min, the Vd [1, 4] was 10.8 L/kg and the clearance [1, 4] was 554 mL/min/kg. The half-life [1, 4] was 13.2 min, the bioavailability ([1]; male, CD-1, mouse, serum, oral, 10 mg kg-1, F (oral bioavailability), mean, oral 10 mg kg-1 vs IV 2 mg kg-1) was 69% and the AUC(0-inf) [1, 5] was 223 ng·h/mL. The AUC(0-t) [1, 5] was 211 ng·h/mL, the CL/F [1, 5] was 824 mL/min/kg and the Cmax [1, 5] was 447 ng/mL. For the same compound, the MRT last [1, 5] was 69 min, the Tmax [1, 5] was 15 min and the Vd/F [1, 5] was 134 L/kg. For the same compound, the half-life [1, 5] was 139 min, the serum concentration ([1]; oral 10 mg kg-1, 24.00 h) was “BLQ” and the “F (oral bioavailability), mean” value ([1]; oral 10 mg kg-1 vs IV 2 mg kg-1) was ~70%. The “concentrations of Aβ in plasma and brain after single dose” value (5XFAD mice) was “time- and dose-dependently decreased”, the “phosphorylation, aggregation and oligomerization of tau” value (tau P301S mice; 10 mg kg−1 d−1 oral, 3 months) was “attenuated” and the “cleavage of mouse and human tau after N368” value (tau P301S mice; 10 mg kg−1 d−1 oral, 3 months, Western blot) was “decreased the cleavage”. For the same compound, the “Morris water maze latency to platform” value (tau P301S mice; five acquisition days) was “decreased latency to platform”, the “percentage of AT8- and AT100-positive neurons” value (tau P301S mice; hippocampus and cortex) was “decreased” and the “percentage of neurons positive of tau N368” value (tau P301S mice; hippocampus and cortex, immunohistochemistry) was “decreased”. For the same compound, the LTP amplitude (tau P301S mice; mouse, in vivo) was “significantly elevated the LTP amplitude”, the “behavioural deficits in probe trial (time in target quadrant)” value (tau P301S mice; mouse, in vivo) was “ameliorated” and the “dendritic spine density (Golgi stain)” value (tau P301S mice; mouse, in vivo) was “increased the density of spines”. The swim speed (tau P301S mice; mouse, in vivo) was “not affected”, the “concentrations of IL-1β and TNFα” value (tau P301S mice; tau P301S mice) was “reduced the concentrations of inflammatory cytokines IL-1β and TNFα” and the “activity of δ-secretase in the brain” value (tau P301S mice; wild-type and tau P301S mice, 10 mg kg−1 d−1 oral, 3 months) was “significantly inhibited”.
